Source: patent publication US11261152B2, “Inhibitors of the N-terminal domain of the androgen receptor” (The Regents of the University of California, priority 2017, dated 2022)
Where a name gives a salt, the structure may show the parent alone.

Tests used:
[1] = system: AP1 mediated reporter activity; assay: AP1 reporter assay; format: cell-based
AR = AR (Homo sapiens, UniProt P10275); assay: AR inhibition (reporter activity of full-length AR and AR splice variants)
[2] = target: T1, full length AR and AR splice variants (AR-V7, AR Δ567) (Homo sapiens, UniProt P10275); assay: AR degradation, protein stability experiments with cycloheximide (Western blot); format: cell-based
T1 construct: endogenous in cells; host or cells: LNCaP-AR (engineered to overexpress full length AR), 22Rv1 (endogenous full length AR and AR-V7), PC3 stably expressing AR Δ567
T1 sequence (P10275 1-920): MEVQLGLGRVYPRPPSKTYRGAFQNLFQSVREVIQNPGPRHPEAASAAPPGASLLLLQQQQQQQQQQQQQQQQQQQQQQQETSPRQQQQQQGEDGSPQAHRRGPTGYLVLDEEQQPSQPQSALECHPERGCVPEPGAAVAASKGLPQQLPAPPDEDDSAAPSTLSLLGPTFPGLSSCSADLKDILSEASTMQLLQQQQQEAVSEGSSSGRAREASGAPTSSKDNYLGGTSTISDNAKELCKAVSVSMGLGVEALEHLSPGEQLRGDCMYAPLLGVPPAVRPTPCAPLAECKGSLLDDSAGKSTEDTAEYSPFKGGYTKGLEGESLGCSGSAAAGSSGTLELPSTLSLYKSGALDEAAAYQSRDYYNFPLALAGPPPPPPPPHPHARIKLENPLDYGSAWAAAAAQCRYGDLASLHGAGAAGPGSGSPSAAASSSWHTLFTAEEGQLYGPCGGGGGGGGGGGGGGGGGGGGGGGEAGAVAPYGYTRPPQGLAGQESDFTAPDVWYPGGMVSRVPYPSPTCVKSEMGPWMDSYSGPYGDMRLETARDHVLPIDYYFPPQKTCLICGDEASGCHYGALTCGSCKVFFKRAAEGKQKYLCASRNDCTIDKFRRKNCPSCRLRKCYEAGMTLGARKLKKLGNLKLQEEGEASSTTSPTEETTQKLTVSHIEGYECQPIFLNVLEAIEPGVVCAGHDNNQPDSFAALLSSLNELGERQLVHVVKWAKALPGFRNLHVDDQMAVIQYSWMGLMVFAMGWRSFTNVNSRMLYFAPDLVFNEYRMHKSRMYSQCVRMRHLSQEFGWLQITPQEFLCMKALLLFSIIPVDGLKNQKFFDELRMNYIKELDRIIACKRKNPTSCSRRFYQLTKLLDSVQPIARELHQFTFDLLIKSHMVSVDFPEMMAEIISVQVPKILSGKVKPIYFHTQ
T1 sequence (P10275 1-644 isoform P10275-3): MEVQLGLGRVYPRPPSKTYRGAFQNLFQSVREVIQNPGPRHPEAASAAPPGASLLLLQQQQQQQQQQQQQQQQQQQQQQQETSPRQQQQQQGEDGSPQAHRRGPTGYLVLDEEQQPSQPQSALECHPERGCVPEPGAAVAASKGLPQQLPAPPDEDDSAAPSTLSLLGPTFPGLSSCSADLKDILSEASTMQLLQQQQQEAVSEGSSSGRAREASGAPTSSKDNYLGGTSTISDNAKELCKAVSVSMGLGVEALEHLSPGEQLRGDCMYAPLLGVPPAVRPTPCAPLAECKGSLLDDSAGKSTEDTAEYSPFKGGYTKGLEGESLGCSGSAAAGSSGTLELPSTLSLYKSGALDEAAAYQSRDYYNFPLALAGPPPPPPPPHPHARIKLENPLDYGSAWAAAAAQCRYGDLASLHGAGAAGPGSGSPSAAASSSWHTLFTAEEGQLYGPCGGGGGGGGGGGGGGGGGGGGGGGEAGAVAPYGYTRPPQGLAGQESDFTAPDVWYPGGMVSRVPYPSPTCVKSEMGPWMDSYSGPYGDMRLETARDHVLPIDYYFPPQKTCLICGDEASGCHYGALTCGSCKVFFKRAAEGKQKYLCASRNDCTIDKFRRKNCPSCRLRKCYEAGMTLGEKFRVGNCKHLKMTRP
T1 sequence (P10275 with tags, fused parts or gaps limits assumed): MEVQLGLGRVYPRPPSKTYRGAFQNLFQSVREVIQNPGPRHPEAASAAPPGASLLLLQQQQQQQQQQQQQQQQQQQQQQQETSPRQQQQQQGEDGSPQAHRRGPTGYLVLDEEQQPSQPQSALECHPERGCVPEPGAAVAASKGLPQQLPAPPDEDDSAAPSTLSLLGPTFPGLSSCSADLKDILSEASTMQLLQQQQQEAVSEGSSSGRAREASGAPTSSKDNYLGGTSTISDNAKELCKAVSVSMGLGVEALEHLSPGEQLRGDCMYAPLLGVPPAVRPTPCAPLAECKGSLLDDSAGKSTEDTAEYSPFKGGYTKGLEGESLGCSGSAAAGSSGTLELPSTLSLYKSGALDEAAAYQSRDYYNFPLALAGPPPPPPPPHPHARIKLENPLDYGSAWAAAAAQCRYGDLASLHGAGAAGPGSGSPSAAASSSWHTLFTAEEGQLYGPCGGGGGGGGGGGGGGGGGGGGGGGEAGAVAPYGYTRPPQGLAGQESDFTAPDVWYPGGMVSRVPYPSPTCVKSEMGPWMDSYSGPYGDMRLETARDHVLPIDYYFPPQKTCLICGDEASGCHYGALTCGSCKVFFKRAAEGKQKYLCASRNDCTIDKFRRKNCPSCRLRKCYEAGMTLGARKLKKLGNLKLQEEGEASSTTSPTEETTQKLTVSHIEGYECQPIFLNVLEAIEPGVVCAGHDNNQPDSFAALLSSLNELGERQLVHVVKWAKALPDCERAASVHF
Experimental: A) LNCaP-AR cells were exposed to the indicated compounds or vehicle (DMSO) in the presence of cycloheximide for the indicated times. Western blots were performed for the indicated proteins. B) Same as A but in 22Rv1 cells.

[3] = system: AR transcriptional activity (MMTV reporter); assay: MMTV reporter assay; format: cell-based
[4] = Table 3 grade HIGH/MED/LOW, grades not defined

With `C=C(CN(C)Cc1ccccc1)C(=O)/C(=C/c1ccc(Cl)cc1)c1ccccc1` [JN018, (E)-4-((Benzyl(methyl)amino)methyl)-1-(4-chlorophenyl)-2-phenylpenta-1,4-dien-3-one hydrochloride] the AP1 [1, 4] was “LOW”, the “AP1 mediated reporter activity” value ([1]; result in words) was “does not affect” and the “reporter activity of endogenously and ectopically expressed full-length AR and AR-V7” value (AR; LNCaP, LNCaP-AR, 22Rv1, PC3 transfected with ARΔ567) was “inhibits the reporter activity”. For the same compound, the IC50 (AR; read-out: IC50 for AR inhibition) was 110 nM, the “IC50 for AR Degradation” value [2] was roughly 2000 nM and the “degradation of AR splice variant AR Δ567” value ([2]; stably introduced into PC3 cells) was “enhanced degradation”. The MMTV [3, 4] was “HIGH” and the “reporter activity driven by the MMTV promoter” value ([3]; result in words) was “inhibits reporter activity”.
